This assay has as its system HCV proteins in Rep5.1 cells (replicon cell line). As to the kind of experiment: Inhibitory activity of HCV: cell-based ELISA in replicon cell line Rep5.1 (decrease of HCV proteins). The arrangement: species or system hepatitis C virus. The procedure, abridged: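 Rep5.1 replicon cells (5000/well, DMEM-10 with 500 μg/ml G418) were given serially diluted drug 4 h after seeding. After 72 h, cells were fixed in methanol/acetone and HCV proteins detected by cell-based ELISA using replicon-specific patient plasma antibodies. IC50 is the concentration giving 50% protein decrease versus the no-drug control.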
For orientation: In an ELISA, binding on a coated surface is turned into a signal by an enzyme label.

The mark [1] stands for this setting: Hepatitis C virus, 72 h, Rep5.1 cells, 72 hours with drug, concentration at which 50% of HCV proteins was decreased, Table 2, read-out: IC50.
[2] abbreviates: Hepatitis C virus, 72 h, Rep5.1 cells, 72 hours with drug, decrease of HCV proteins measured by HCV antibody, Table 1, read-out: Level (IC50 values classified).
Where [3] appears, read: Rep5.1 cells, 72 hours with drug, concentration at which 50% of HCV proteins was decreased, Table 2, read-out: IC50.

Molecules are shown by their SMILES. Like-named read-outs stand apart in the source and are kept apart here.

For orientation: IC50 means the concentration needed to halve the response being measured. `COc1ccc(COC(=O)C2=C(C)NC(=S)NC2)c(C)c1C` [Compound 138, 6-methyl-2-thioxo-1,2,3,4-tetrahydro-pyrimidine-5-carboxylic acid 4-methoxy-2,3-dimethyl-benzyl ester]: the IC50 runs as follows: under setting [1], 20 µM; under setting [2], 10 to 20 µM.

Turning to `CC1=C(C(=O)OCc2ccsc2)CNC(=S)N1` [Compound 139, 6-methyl-2-thioxo-1,2,3,4-tetrahydro-pyrimidine-5-carboxylic acid thiophen-3-ylmethyl ester], the IC50 under setting [1] was determined as 7 µM and the IC50 under setting [2] fell in the range of 1 to 10 µM.

For `CC1=C(C(=O)OCc2cc3c(cc2[N+](=O)[O-])OCO3)CNC(=S)N1` [Compound 140, 6-methyl-2-thioxo-1,2,3,4-tetrahydro-pyrimidine-5-carboxylic acid 6-nitro-benzo[1,3]dioxol-5-ylmethyl ester], the IC50 was 13 µM under setting [1] and 10 to 20 µM under setting [2].

Consider `COc1ccc(COC(=O)C2=C(C)NC(=S)NC2)cc1Br` [Compound 141, 6-methyl-2-thioxo-1,2,3,4-tetrahydro-pyrimidine-5-carboxylic acid 3-bromo-4-methoxy-benzyl ester], for which the IC50 under setting [1] amounted to 0.7 µM and the IC50 under setting [2] is below 1 µM.

As to `CC1=C(C(=O)OCc2c(C)cc(C)cc2C)CNC(=S)N1` [Compound 142, 6-methyl-2-thioxo-1,2,3,4-tetrahydro-pyrimidine-5-carboxylic acid 2,4,6-trimethyl-benzyl ester], the IC50 under setting [1] is 6 µM and the IC50 under setting [2] fell in the range of 1 to 10 µM.

As for `CC1=C(C(=O)OCc2cc(Cl)ccc2[N+](=O)[O-])CNC(=S)N1` [Compound 143, 6-methyl-2-thioxo-1,2,3,4-tetrahydro-pyrimidine-5-carboxylic acid 5-chloro-2-nitro-benzyl ester], the IC50 runs as follows: under setting [1], 0.4 µM; under setting [2], below 1 µM.

In the case of `O=C(OCc1ccccc1)C1=C(C(F)(F)F)NC(=S)NC1` [Compound 146, 2-thioxo-6-trifluoromethyl-1,2,3,4-tetrahydro-pyrimidine-5-carboxylic acid benzyl ester], the IC50 is, setting by setting: under setting [1], above 100 µM; under setting [2], above 20 µM.

In the case of `CCn1c2ccccc2c2cc(COC(=O)C3=C(C)NC(=S)NC3)ccc21` [Compound 147, 6-methyl-2-thioxo-1,2,3,4-tetrahydro-pyrimidine-5-carboxylic acid 9-ethyl-9H-carbazol-3-ylmethyl ester], the IC50 runs as follows: under setting [1], below 0.4 µM; under setting [2], below 1 µM.

For the molecule `CC1=C(C(=O)OCc2cc(C(F)(F)F)cc(C(F)(F)F)c2)CNC(=S)N1` [Compound 148, 6-methyl-2-thioxo-1,2,3,4-tetrahydro-pyrimidine-5-carboxylic acid 3,5-bis-trifluoromethyl-benzyl ester], the IC50 was below 0.4 µM under setting [1] and below 1 µM under setting [2].

For the molecule `CC1=C(C(=O)OCc2cc(C)ccc2C)CNC(=S)N1` [Compound 149, 6-methyl-2-thioxo-1,2,3,4-tetrahydro-pyrimidine-5-carboxylic acid 2,5-dimethyl-benzyl ester], the IC50 runs as follows: under setting [1], below 0.4 µM; under setting [2], below 1 µM.

With `CCOc1cc(COC(=O)C2=C(C)NC(=S)NC2)cc(OCC)c1` [Compound 150, 6-methyl-2-thioxo-1,2,3,4-tetrahydro-pyrimidine-5-carboxylic acid 3,5-diethoxy-benzyl ester], the IC50 reads like this: under setting [1], 1 µM; under setting [2], below 1 µM.

With `CC1=C(C(=O)OCC2CC3CCC2C3)CNC(=S)N1` (centres unmarked) [Compound 151, 6-methyl-2-thioxo-1,2,3,4-tetrahydro-pyrimidine-5-carboxylic acid bicyclo[2.2.1]hept-2-ylmethyl ester], the IC50 reads like this: (Hepatitis C virus, 72 h) below 0.4 µM; (Hepatitis C virus, 72 h, read-out: Level (IC50 values classified)) below 1 µM.

As for `CCc1ccc(COC(=O)C2=C(C)NC(=S)NC2)cc1` [Compound 152, 6-methyl-2-thioxo-1,2,3,4-tetrahydro-pyrimidine-5-carboxylic acid 4-ethyl-benzyl ester], the IC50 is, setting by setting: under setting [1], 0.5 µM; under setting [2], below 1 µM.

With `CC1=C(C(=O)OCc2cccs2)CNC(=S)N1` [Compound 153, 6-methyl-2-thioxo-1,2,3,4-tetrahydro-pyrimidine-5-carboxylic acid thiophen-2-ylmethyl ester], the IC50 under setting [1] was determined as 2.7 µM and the IC50 under setting [2] lay in the range of 1 to 10 µM.

Consider `CC1=C(C(=O)OCc2ccccn2)CNC(=S)N1` [Compound 154, 6-methyl-2-thioxo-1,2,3,4-tetrahydro-pyrimidine-5-carboxylic acid pyridin-2-ylmethyl ester], for which the IC50 runs as follows: under setting [1], above 100 µM; under setting [2], above 20 µM.

As to `CC1=C(C(=O)OCc2ccncc2)CNC(=S)N1` [Compound 155, 6-methyl-2-thioxo-1,2,3,4-tetrahydro-pyrimidine-5-carboxylic acid pyridin-4-ylmethyl ester], the IC50 by setting is: under setting [1], above 100 µM; under setting [2], above 20 µM.

Turning to `CC1=C(C(=O)OCc2cccc(C)c2C)CNC(=S)N1` [Compound 156, 6-methyl-2-thioxo-1,2,3,4-tetrahydro-pyrimidine-5-carboxylic acid 2,3-dimethyl-benzyl ester], the IC50 under setting [1] was 0.5 µM and the IC50 under setting [2] was below 1 µM.

As for `CCC#CCCOC(=O)C1=C(C)NC(=S)NC1` [Compound 157, 6-methyl-2-thioxo-1,2,3,4-tetrahydro-pyrimidine-5-carboxylic acid hex-3-inyl ester], the IC50 under setting [3] was 1 µM.

Turning to `CC1=C(C(=O)OCCCc2cccnc2)CNC(=S)N1` [Compound 158, 6-methyl-2-thioxo-1,2,3,4-tetrahydro-pyrimidine-5-carboxylic acid 3-pyridin-3-yl-propyl ester], the IC50 was above 100 µM under setting [1] and above 20 µM under setting [2].

As for `C#CCOC(=O)C1=C(C)NC(=S)NC1` [Compound 159, 6-methyl-2-thioxo-1,2,3,4-tetrahydro-pyrimidine-5-carboxylic acid prop-2-inyl ester], the IC50 under setting [3] is above 100 µM.

For `CC#CCCOC(=O)C1=C(C)NC(=S)NC1` [Compound 160, 6-methyl-2-thioxo-1,2,3,4-tetrahydro-pyrimidine-5-carboxylic acid pent-3-inyl ester], under setting [3], the IC50 was determined as 12 µM.

For the molecule `CC1=C(C(=O)OCC2CCCO2)CNC(=S)N1` (centres unmarked) [Compound 161, 6-methyl-2-thioxo-1,2,3,4-tetrahydro-pyrimidine-5-carboxylic acid tetrahydrofuran-2-ylmethyl ester], the IC50 under setting [1] is above 100 µM and the IC50 under setting [2] was above 20 µM.

In the case of `CC1=C(C(=O)OCC2CCOC2)CNC(=S)N1` (centres unmarked) [Compound 162, 6-methyl-2-thioxo-1,2,3,4-tetrahydro-pyrimidine-5-carboxylic acid tetrahydrofuran-3-ylmethyl ester], the IC50 is above 100 µM under setting [1] and above 20 µM under setting [2].

On to `CC1=C(C(=O)OCCOc2ccccc2)CNC(=S)N1` [Compound 163, 6-methyl-2-thioxo-1,2,3,4-tetrahydro-pyrimidine-5-carboxylic acid 2-phenoxy-ethyl ester], for which the IC50 is, setting by setting: under setting [1], 2.5 µM; under setting [2], 1 to 10 µM.

Turning to `CC1=C(C(=O)OCc2cccc(SC(F)(F)F)c2)CNC(=S)N1` [Compound 164, 6-methyl-2-thioxo-1,2,3,4-tetrahydro-pyrimidine-5-carboxylic acid 3-trifluoromethylsulfanyl-benzyl ester], the IC50 is below 0.4 µM under setting [1] and below 1 µM under setting [2].

With `CC1=C(C(=O)OCCc2cn(C)c3ccccc23)CNC(=S)N1` [Compound 165, 6-methyl-2-thioxo-1,2,3,4-tetrahydro-pyrimidine-5-carboxylic acid 2-(1-methyl-1H-indol-3-yl)-ethyl ester], the IC50 runs as follows: under setting [1], 1.4 µM; under setting [2], 1 to 10 µM.

On to `CCOC(=O)CCCC1=C(C(=O)OCc2ccccc2)CNC(=S)N1` [Compound 169, 6-(3-ethoxycarbonyl-propyl)-2-thioxo-1,2,3,4-tetrahydro-pyrimidine-5-carboxylic acid benzyl ester], for which the IC50 was 9 µM under setting [1] and 1 to 10 µM under setting [2].

As to `O=C(O)CCCC1=C(C(=O)OCc2ccccc2)CNC(=S)N1` [Compound 170, 6-(3-carboxy-propyl)-2-thioxo-1,2,3,4-tetrahydro-pyrimidine-5-carboxylic acid benzyl ester], the IC50 is 90 µM under setting [1] and above 20 µM under setting [2].

In the case of `CC1=C(C(=O)OCCc2cccc(C)c2)CNC(=S)N1` [Compound 172, 6-methyl-2-thioxo-1,2,3,4-tetrahydro-pyrimidine-5-carboxylic acid 2-m-tolyl-ethyl ester], the IC50 was below 0.4 µM under setting [1] and below 1 µM under setting [2].

Take `CC1=C(C(=O)OCCc2ccc(C)cc2)CNC(=S)N1` [Compound 173, 6-methyl-2-thioxo-1,2,3,4-tetrahydro-pyrimidine-5-carboxylic acid 2-p-tolyl-ethyl ester]: the IC50 under setting [1] was below 0.4 µM.

As to `COc1ccc(OC)c(COC(=O)C2=C(C)NC(=S)NC2)c1` [Compound 174, 6-methyl-2-thioxo-1,2,3,4-tetrahydro-pyrimidine-5-carboxylic acid 2,5-dimethoxy-benzyl ester], the IC50 was 7 µM under setting [1] and 1 to 10 µM under setting [2].

Consider `CC1=C(C(=O)OCCc2cc(C)cc(C)c2)CNC(=S)N1` [Compound 175, 6-methyl-2-thioxo-1,2,3,4-tetrahydro-pyrimidine-5-carboxylic acid 2-(3,5-dimethylphenyl)-ethyl ester], for which the IC50 is below 0.4 µM under setting [1] and below 1 µM under setting [2].

Regarding `COc1ccc(COC(=O)C2=C(C)NC(=S)NC2)cc1C` [Compound 176, 6-methyl-2-thioxo-1,2,3,4-tetrahydro-pyrimidine-5-carboxylic acid 4-methoxy-3-methyl-benzyl ester], the IC50 under setting [1] stood at 2.7 µM and the IC50 under setting [2] lay in the range of 1 to 10 µM.
